Square brackets hold non-standard residues; d marks the D form. Peptide text beside a SMILES is read from it. * marks the point of attachment. X1 = CN1/C(=C/C=C/C=C/C2=[N+](CCCCCC(=O)*)c3ccc(S(=O)(=O)[O-])cc3C2(C)C)C(C)(C)c2cc(S(=O)(=O)O)ccc21; Hyp = O=C(O)[C@@H]1C[C@@H](O)CN1; Nlys = NCCCCNCC(=O)O; Ahx = NCCCCCC(=O)O
Columns and labels:
[1] = Serum stability test (HPLC); format: in vitro ADME, mouse; details: 37 °C; for degradation in serum (in words): 25% v/v mouse serum, 24 h and even after 48 h; for degradation in serum (in words) / metabolised at 24 h: HPLC UV 646 nm; for degradation in serum (in words) / HPLC chromatogram after 48 h of serum incubation / metabolised at 24 h: n = 3; for HPLC peak shape and elution time after 24 h of serum incubation: mouse serum; for HPLC peak shape and elution time after 24 h of serum incubation / HPLC chromatogram after 48 h of serum incubation: HPLC 646 nm; for HPLC chromatogram after 48 h of serum incubation: 25% mouse serum, 48 h vs 10 min; for metabolised at 24 h: 25% v/v mouse serum in 1× PBS, 10 nmol probe, peak area normalized to 10 min, read-out: percent of the peptides proteolyzed after 24 h of serum incubation
Protocol: Cy5‐labeled peptidomimetic probes (10 nmol) were incubated in 25% v/v mouse serum (Biosharp, BL1053A diluted in 1× PBS) at 37 °C. Aliquots (200 µL) were taken periodically at 0 (deadtime: ≈10 min), 2, 24, and 48 h, and added to 400 µL of 3.75% trichloroacetic acid in acetonitrile at 4 °C. Then, all samples were centrifuged to remove the precipitated serum proteins at 13800 g for 10 min at 4 °C. The supernatant (150 µL) was taken to mix with 550 µL of water (with 0.1% TFA) to centrifuge again at 2630 g for 5 min at 4 °C. Five microliter of the supernatant was mixed with 200 µL of water containing 0.1% TFA as the final samples for HPLC analysis at room temperature monitored by absorbance at 646 nm with the integral area of the intact fraction recorded. The peak area for the 10 min time point was designated as 100% intact, and each peak area at successive time points was normalized to the 10 min peak to calculate the percent compound remaining. All the experiments were repeated three times.

cartilage = assay: In vivo and ex vivo fluorescence imaging of cartilage uptake and retention in nude mice; parameters: species or system mouse; details: 1 nmol i.v., 0-96 h
From the text: All procedures for mouse maintenance and experiments strictly followed the policy of the Experimental Animal Ethics Committee of the Fifth Affiliated Hospital of Sun Yat‐sen University (protocol numbers: 00361, 00436). Balb/c nu mice (male, 10‐18 weeks old) were used for the general in vivo imaging experiments (Figure 3c–f; Figures S10–S14, Supporting Information). For Figure 3g,h and Figure S16 (Supporting Information), neonatal Balb/c mice (7 days old) were used. Female Balb/c mice (74 weeks old versus 12 weeks old) were used in the aged joint imaging experiment reported in Figure 4a–c and Figure S17 (Supporting Information). The RA model was made using female Balb/c mice (6‐8 weeks old) by intraperitoneal injection of an anti‐collagen antibody cocktail (1.5 mg per mouse; Chondrex, 53100) followed by selective subcutaneous injection of lipopolysaccharide (LPS, 12.5 µg per mouse, Chondrex, 53100) into the left hind paw three days later.^[ [30] ^] C57BL/6J mice (male, 6–8 weeks old) were used for the biocompatibility tests (Figures S23–S25, Supporting Information).
(§1) Typically, the fluorescence peptides or peptoids were prepared at a dose of 1 nmol (10 µM in 100 µL of 1× PBS buffer) and injected into the tail vein of each mouse 2 h prior to fluorescence imaging with an IVIS Spectrum imager (PerkinElmer Lumina III). For Figure 4, Figures S17 and S18 (Supporting Information) (joint aging and RA) and Figure S27 (Supporting Information), 2 nmol of Cy5‐(NlysO)7 (20 µM in 100 µL of 1× PBS buffer) were i.v. administered to each mouse. For 1‐week‐old neonatal mice, 1 nmol of Cy5‐(NlysO)7 (20 µM in 50 µL of 1× PBS buffer) was intravenously injected into each mouse. All in vivo imaging was performed 2 h post probe injection with the IVIS Spectrum imager (PerkinElmer, fluorescence: ex/em: 620/670 nm, exposure: 1 s, bing: 4, F/Stop: 2; field of view: A/B/C/Z). Mice were anesthesia with 3% isoflurane (RWD, R510‐22‐10) during image acquisition. Hair in the knee areas was removed before fluorescence imaging for mice in Figure 4a and Figure S17 (Supporting Information). The mice were euthanized following the final image acquisition and occasionally imaged again after skin and organ removal. Next, the airways, ankles, ears, paws, knees, tails, spines, and chest ribs were collected, imaged, and saved for subsequent histology analysis. All acquired fluorescence images were analyzed using the Living Image software (PerkinElmer). The fluorescence signal from each specimen was measured by quantifying the average radiation efficiency within the selected oval‐shaped regions‐of‐interest.
For the cartilage retention experiments (Figures S11 and S12, Supporting Information), Cy5‐(NlysO)7 (10 µM in 100 µL of 1× PBS buffer) was administered via tail vein to four male Balb/c nu mice (10 weeks old) at 2, 24, 48, and 96 h respectively, prior to fluorescence imaging using an IVIS Spectrum imaging system (ex/em: 620/670 nm, exposure: 1 s, bing: 4, F/Stop: 2). Following euthanasia, their cartilaginous tissues were harvested and imaged. The fluorescence images were analyzed and quantified as described above.

[2] = Organ fluorescence 2 h post-injection (clearance route); format: in vivo, mouse; details: nude mice, organs isolated 2 h post i.v. injection of 1 nmol
Protocol: as §1

[3] = Routine (whole) blood tests after repeated dosing; format: in vivo, mouse; details: C57BL/6J mice, 3 weekly i.v. doses of 2 nmol over 14 days, n = 5
Protocol: Whole blood tests: Each C57BL/6J mouse (6–8 weeks old) was intravenously injected with 100 µL of PBS buffer or with each peptide or peptoid probe (2 nmol in 100 µL 1× PBS buffer per mouse) on days 0, 7, and 14. The mice were sacrificed on day 15, 24 h after the final injection. The heart, liver, spleen, lungs, and kidneys were collected from each mouse and processed into formalin‐fixed paraffin‐embedded sections for histological evaluation with H&E staining. Whole blood was collected. Both H&E and blood sample analyses were performed by Wuhan Servicebio.

[4] = 25% v/v mouse serum (Biosharp, BL1053A diluted in 1× PBS); details: 37 °C, up to 48 h

| Compound | HPLC peak shape and elution time after 24 h of serum incubation [1] | in vivo retention in joints and ribs compared to peptide sequences Cy5-(GKO)7 and Cy5-R8 (cartilage) | clearance route from organ fluorescence [2] | routine blood analyses vs PBS control group [3] | serum stability (degradation in mouse serum) [4] | further results |
| --- | --- | --- | --- | --- | --- | --- |
| CN1/C(=C/C=C/C=C/C2=[N+](CCCCCC(=O)NCCCCCC(=O)NCC(=O)N(CCCCN)CC(=O)N3C[C@H](O)C[C@H]3C(=O)NCC(=O)N(CCCCN)CC(=O)N3C[C@H](O)C[C@H]3C(=O)NCC(=O)N(CCCCN)CC(=O)N3C[C@H](O)C[C@H]3C(=O)NCC(=O)N(CCCCN)CC(=O)N3C[C@H](O)C[C@H]3C(=O)NCC(=O)N(CCCCN)CC(=O)N3C[C@H](O)C[C@H]3C(=O)NCC(=O)N(CCCCN)CC(=O)N3C[C@H](O)C[C@H]3C(=O)NCC(=O)N(CCCCN)CC(=O)N3C[C@H](O)C[C@H]3C(N)=O)c3ccc(S(=O)(=O)[O-])cc3C2(C)C)C(C)(C)c2cc(S(=O)(=O)O)ccc21 [Cy5‐(GNlysO)7] ({X1-Ahx}-G[Nlys][Hyp]G[Nlys][Hyp]G[Nlys][Hyp]G[Nlys][Hyp]G[Nlys][Hyp]G[Nlys][Hyp]G[Nlys][Hyp]-NH2) | No significant changes in peak shape and elusion time were noted | stronger retention in the joints and ribs in vivo | might be mainly cleared through kidneys | None of the measurements | – | degradation in serum (in words) [1]: hardly degraded |
| CN1/C(=C/C=C/C=C/C2=[N+](CCCCCC(=O)NCCCCCC(=O)NCC(=O)N3C[C@H](O)C[C@H]3C(=O)NCC(=O)N3C[C@H](O)C[C@H]3C(=O)NCC(=O)N3C[C@H](O)C[C@H]3C(=O)NCC(=O)N3C[C@H](O)C[C@H]3C(=O)NCC(=O)N3C[C@H](O)C[C@H]3C(=O)NCC(=O)N3C[C@H](O)C[C@H]3C(=O)NCC(=O)N3C[C@H](O)C[C@H]3C(N)=O)c3ccc(S(=O)(=O)[O-])cc3C2(C)C)C(C)(C)c2cc(S(=O)(=O)O)ccc21 [Cy5‐(GO)7] ({X1-Ahx}-G[Hyp]G[Hyp]G[Hyp]G[Hyp]G[Hyp]G[Hyp]G[Hyp]-NH2) | – | – | – | – | – | HPLC chromatogram after 48 h of serum incubation [1]: showed prominent peaks from peptide proteolysis; metabolised at 24 h [1]: ~25% |
| Cy5‐(GNlysO)7 | – | – | – | – | hardly degraded in the serum even after 48 h | – |
| Cy5‐(NlysO)7 | – | – | – | – | hardly degraded in the serum even after 48 h | – |
| Cy5‐Nlys7 | – | – | – | – | No significant changes in peak shape and elution time even post 48 h | – |
| CN1/C(=C/C=C/C=C/C2=[N+](CCCCCC(=O)NCCCCCC(=O)N(CCCCN)CC(=O)N(CCCCN)CC(=O)N(CCCCN)CC(=O)N(CCCCN)CC(=O)N(CCCCN)CC(=O)N(CCCCN)CC(=O)N(CCCCN)CC(N)=O)c3ccc(S(=O)(=O)[O-])cc3C2(C)C)C(C)(C)c2cc(S(=O)(=O)O)ccc21 [Cy5‐Nlys7] ({X1-Ahx}-[Nlys][Nlys][Nlys][Nlys][Nlys][Nlys][Nlys]-NH2) | No significant changes in peak shape and elusion time were noted | stronger retention in the joints and ribs in vivo | may be cleared by the ki dneys and liver | None of the measurements | – | – |
| CN1/C(=C/C=C/C=C/C2=[N+](CCCCCC(=O)NCCCCCC(=O)NCC(=O)N(CCCCN)CC(=O)NCC(=O)N(CCCCN)CC(=O)NCC(=O)N(CCCCN)CC(=O)NCC(=O)N(CCCCN)CC(=O)NCC(=O)N(CCCCN)CC(=O)NCC(=O)N(CCCCN)CC(=O)NCC(=O)N(CCCCN)CC(N)=O)c3ccc(S(=O)(=O)[O-])cc3C2(C)C)C(C)(C)c2cc(S(=O)(=O)O)ccc21 [Cy5‐(GNlys)7] ({X1-Ahx}-G[Nlys]G[Nlys]G[Nlys]G[Nlys]G[Nlys]G[Nlys]G[Nlys]-NH2) | No significant changes in peak shape and elusion time were noted | stronger retention in the joints and ribs in vivo | may be cleared by the ki dneys and liver | None of the measurements | – | degradation in serum (in words) [1]: hardly degraded |
| Cy5‐(GNlys)7 | – | – | – | – | hardly degraded in the serum even after 48 h | – |
| CN1/C(=C/C=C/C=C/C2=[N+](CCCCCC(=O)NCCCCCC(=O)NCC(=O)N[C@@H](CCCCN)C(=O)N3C[C@H](O)C[C@H]3C(=O)NCC(=O)N[C@@H](CCCCN)C(=O)N3C[C@H](O)C[C@H]3C(=O)NCC(=O)N[C@@H](CCCCN)C(=O)N3C[C@H](O)C[C@H]3C(=O)NCC(=O)N[C@@H](CCCCN)C(=O)N3C[C@H](O)C[C@H]3C(=O)NCC(=O)N[C@@H](CCCCN)C(=O)N3C[C@H](O)C[C@H]3C(=O)NCC(=O)N[C@@H](CCCCN)C(=O)N3C[C@H](O)C[C@H]3C(=O)NCC(=O)N[C@@H](CCCCN)C(=O)N3C[C@H](O)C[C@H]3C(N)=O)c3ccc(S(=O)(=O)[O-])cc3C2(C)C)C(C)(C)c2cc(S(=O)(=O)O)ccc21 [Cy5‐(GKO)7] ({X1-Ahx}-GK[Hyp]GK[Hyp]GK[Hyp]GK[Hyp]GK[Hyp]GK[Hyp]GK[Hyp]-NH2) | – | – | might be mainly cleared through kidneys | – | – | HPLC chromatogram after 48 h of serum incubation [1]: showed prominent peaks from peptide proteolysis; metabolised at 24 h [1]: ~25% |
